Data as given in ChEMBL document CHEMBL3885881, “DrugMatrix”.

Species: Rattus norvegicus
Assay: DrugMatrix - Regimen: Daily Repeat
Assay type: toxicity, organism-based, Sprague-Dawley
Design: regimen Daily Repeat, gender Male, age 6-8 weeks
Conditions: in vivo, po, route oral GAVAGE, vehicle .5 % CMC; for ABSOLUTE BASOPHIL / ABSOLUTE EOSINOPHIL / ABSOLUTE LYMPHOCYTE / ABSOLUTE MONOCYTE / ABSOLUTE SEGMENTED NEUTROPHIL / BASOPHIL / EOSINOPHIL / ERYTHROCYTE COUNT / HEMATOCRIT / HEMOGLOBIN / LEUKOCYTE COUNT / LYMPHOCYTE / MEAN CORPUSCULAR HEMOGLOBIN / MEAN CORPUSCULAR HEMOGLOBIN CONCENTRATION / MONOCYTE / NEUTROPHIL / NUCLEATED RED BLOOD CELLS / PLATELET COUNT: tissue Blood; for ALANINE AMINOTRANSFERASE / ALBUMIN / ALKALINE PHOSPHATASE / ASPARTATE AMINOTRANSFERASE / BLOOD UREA NITROGEN / CARBON DIOXIDE / CHLORIDE / CHOLESTEROL / CREATINE PHOSPHOKINASE / CREATININE / GLUCOSE / LACTATE DEHYDROGENASE / LIPASE / PHOSPHORUS / POTASSIUM / SODIUM / TOTAL BILIRUBIN / TOTAL PROTEIN / URIC ACID: tissue Plasma
[1] = 0 mg/kg, 72 h, dose level Control, time 3 day
[2] = 0 mg/kg, 120 h, dose level Control, time 5 day
[3] = 3 mg/kg, 72 h, dose level Low, time 3 day

In the case of COc1cc2nc(N3CCN(C(=O)c4ccco4)CC3)nc(N)c2cc1OC [PRAZOSIN], the “ABSOLUTE BASOPHIL” value [1] is reported as 0 CELLS/uL, the “ABSOLUTE EOSINOPHIL” value [1] is reported as 171.33 CELLS/uL and the “ABSOLUTE LYMPHOCYTE” value [1] is reported as 13776.5 CELLS/uL. For the same compound, the “ABSOLUTE MONOCYTE” value [1] was 180.83 CELLS/uL, the “ABSOLUTE SEGMENTED NEUTROPHIL” value [1] was 1121.33 CELLS/uL and the BASOPHIL [1] was 0%. The EOSINOPHIL [1] was 1%, the “ERYTHROCYTE COUNT” value [1] was 5.56 x10E6/uL and the HEMATOCRIT [1] was 34.75%. The HEMOGLOBIN [1] was 13.68 G/DL, the “LEUKOCYTE COUNT” value [1] was 15.25 x10E3/uL and the LYMPHOCYTE [1] was 90.17%. For the same compound, the “MEAN CORPUSCULAR HEMOGLOBIN” value [1] was 24.6 pg, the “MEAN CORPUSCULAR HEMOGLOBIN CONCENTRATION” value [1] was 39.4 G/DL and the MONOCYTE [1] was 1.17%. For the same compound, the NEUTROPHIL [1] was 7.67%, the “NUCLEATED RED BLOOD CELLS” value [1] was 0 /100WBC and the “PLATELET COUNT” value [1] was 1342 x10E3/uL. The “ALANINE AMINOTRANSFERASE” value [1] was 49.67 u/L, the ALBUMIN [1] was 4.15 G/DL and the “ALKALINE PHOSPHATASE” value [1] was 346.83 u/L. For the same compound, the “ASPARTATE AMINOTRANSFERASE” value [1] was 108.17 u/L, the “BLOOD UREA NITROGEN” value [1] was 17.33 mg/dL and the “CARBON DIOXIDE” value [1] was 25 mmol/L. The CHLORIDE [1] was 100.83 MEQ/L, the CHOLESTEROL [1] was 66.83 mg/dL and the “CREATINE PHOSPHOKINASE” value [1] was 788 u/L. The CREATININE [1] was 0.18 mg/dL, the GLUCOSE [1] was 151.67 mg/dL and the “LACTATE DEHYDROGENASE” value [1] was 982.5 u/L. The LIPASE [1] was 10.33 u/L, the PHOSPHORUS [1] was 11.23 mg/dL and the POTASSIUM [1] was 6.37 MEQ/L. For the same compound, the SODIUM [1] was 141.02 MEQ/L, the “TOTAL BILIRUBIN” value [1] was 0.18 mg/dL and the “TOTAL PROTEIN” value [1] was 5.9 G/DL. For the same compound, the “URIC ACID” value [1] was 1.8 mg/dL, the “ABSOLUTE BASOPHIL” value [2] was 0 CELLS/uL and the “ABSOLUTE EOSINOPHIL” value [2] was 69 CELLS/uL. For the same compound, the “ABSOLUTE LYMPHOCYTE” value [2] was 13632.83 CELLS/uL, the “ABSOLUTE MONOCYTE” value [2] was 139.83 CELLS/uL and the “ABSOLUTE SEGMENTED NEUTROPHIL” value [2] was 1225 CELLS/uL. For the same compound, the BASOPHIL [2] was 0%, the EOSINOPHIL [2] was 0.33% and the “ERYTHROCYTE COUNT” value [2] was 5.52 x10E6/uL. For the same compound, the HEMATOCRIT [2] was 33.98%, the HEMOGLOBIN [2] was 13.22 G/DL and the “LEUKOCYTE COUNT” value [2] was 15.07 x10E3/uL. For the same compound, the LYMPHOCYTE [2] was 90.83%, the “MEAN CORPUSCULAR HEMOGLOBIN” value [2] was 23.95 pg and the “MEAN CORPUSCULAR HEMOGLOBIN CONCENTRATION” value [2] was 38.9 G/DL. For the same compound, the MONOCYTE [2] was 0.83%, the NEUTROPHIL [2] was 8% and the “NUCLEATED RED BLOOD CELLS” value [2] was 0 /100WBC. The “PLATELET COUNT” value [2] was 1196 x10E3/uL, the “ALANINE AMINOTRANSFERASE” value [2] was 49.17 u/L and the ALBUMIN [2] was 4.2 G/DL. For the same compound, the “ALKALINE PHOSPHATASE” value [2] was 352.33 u/L, the “ASPARTATE AMINOTRANSFERASE” value [2] was 89.67 u/L and the “BLOOD UREA NITROGEN” value [2] was 18 mg/dL. For the same compound, the “CARBON DIOXIDE” value [2] was 27.67 mmol/L, the CHLORIDE [2] was 101 MEQ/L and the CHOLESTEROL [2] was 72.83 mg/dL. For the same compound, the “CREATINE PHOSPHOKINASE” value [2] was 417.5 u/L, the CREATININE [2] was 0.18 mg/dL and the GLUCOSE [2] was 150.5 mg/dL. The “LACTATE DEHYDROGENASE” value [2] was 517.33 u/L, the LIPASE [2] was 9 u/L and the PHOSPHORUS [2] was 11.87 mg/dL. The POTASSIUM [2] was 6.57 MEQ/L, the SODIUM [2] was 143.62 MEQ/L and the “TOTAL BILIRUBIN” value [2] was 0.2 mg/dL. The “TOTAL PROTEIN” value [2] was 6.08 G/DL, the “URIC ACID” value [2] was 1.45 mg/dL and the “ABSOLUTE BASOPHIL” value [3] was 0 CELLS/uL. The “ABSOLUTE EOSINOPHIL” value [3] was 118.67 CELLS/uL, the “ABSOLUTE LYMPHOCYTE” value [3] was 13015.33 CELLS/uL and the “ABSOLUTE MONOCYTE” value [3] was 208 CELLS/uL. The “ABSOLUTE SEGMENTED NEUTROPHIL” value [3] was 1224.67 CELLS/uL, the BASOPHIL [3] was 0% and the EOSINOPHIL [3] was 0.67%. For the same compound, the “ERYTHROCYTE COUNT” value [3] was 5.43 x10E6/uL, the HEMATOCRIT [3] was 33.53% and the HEMOGLOBIN [3] was 13.07 G/DL. The “LEUKOCYTE COUNT” value [3] was 14.57 x10E3/uL, the LYMPHOCYTE [3] was 89.67% and the “MEAN CORPUSCULAR HEMOGLOBIN” value [3] was 24.1 pg. For the same compound, the “MEAN CORPUSCULAR HEMOGLOBIN CONCENTRATION” value [3] was 38.97 G/DL, the MONOCYTE [3] was 1.33% and the NEUTROPHIL [3] was 8.33%. The “NUCLEATED RED BLOOD CELLS” value [3] was 0 /100WBC, the “PLATELET COUNT” value [3] was 1384.67 x10E3/uL and the “ALANINE AMINOTRANSFERASE” value [3] was 59.67 u/L. The ALBUMIN [3] was 3.97 G/DL, the “ALKALINE PHOSPHATASE” value [3] was 505 u/L and the “ASPARTATE AMINOTRANSFERASE” value [3] was 74.67 u/L. The “BLOOD UREA NITROGEN” value [3] was 13.33 mg/dL, the “CARBON DIOXIDE” value [3] was 24.33 mmol/L and the CHLORIDE [3] was 102 MEQ/L. For the same compound, the CHOLESTEROL [3] was 70 mg/dL, the “CREATINE PHOSPHOKINASE” value [3] was 271 u/L and the CREATININE [3] was 0.22 mg/dL. The GLUCOSE [3] was 128.67 mg/dL, the “LACTATE DEHYDROGENASE” value [3] was 254.33 u/L and the LIPASE [3] was 10.67 u/L. It also gave a PHOSPHORUS [3] of 12.33 mg/dL, a POTASSIUM [3] of 6.67 MEQ/L and an SODIUM [3] of 142.25 MEQ/L. The “TOTAL BILIRUBIN” value [3] was 0.2 mg/dL, the “TOTAL PROTEIN” value [3] was 5.63 G/DL and the “URIC ACID” value [3] was 1.43 mg/dL.
